Read-outs that look alike come from different tables or passages of the source.
What was measured:
GST-tagged PTPN2 protein = biological target: T1, GST-tagged PTPN2 protein (Homo sapiens, UniProt P17706); assay: Primary assay of PTPN2 enzymatic activity inhibition (DiFMUP fluorescence); assay type: biochemical; conditions: DiFMUP substrate 2 μM, 60 min at RT
T1 construct: purchased ActiveMotif 31592
Experimental: Compound activity was determined using GST-tagged PTPN2 protein (Cat #31592, ActiveMotif) (SEQ ID NO: 1) in an in vitro enzymatic reaction. The enzymatic reaction was carried out in assay buffer (50 mM HEPES Na salt pH 7.2-7.4, 2 mM EDTA, 100 mM NaCl, 52 ng/μL BSA, and 6 mM DTT). The compounds were dispensed on a 384 well Diamond Well Plate (Axigen, Cat #P-384-120SQ-C-S) using the Biomek FX liquid handling system at 100× solutions of compounds in DMSO. 2× PTPN2 (final concentration 0.004 ng/μL) was prepared in 1× Assay buffer and 25 μL of mixture per well was added into Reaction plate (Optiplate, black, Perkin Elmer, Cat #6007270). Add 25 μL of 1× buffer to Ctrl- (Substrate w/o PTPN2) wells followed by centrifugation at 100 g for 1 min. Next step the Compounds were added to Reaction plate using Biomek station via following steps: 3 ul of 100× compounds (in DMSO) were mixed with 27 μL of Assay Buffer, then 5 μL of this mixture was added to Reaction plate with 25 μL of PTPN2 Mix. Plates were centrifuged for 1 min at 100 g and incubated for another 10 minutes at room temperature. Finally, 20 μL of 2.5× Substrate (DiFUMP, Invitrogen™ Cat #D6567) mix was added into appropriate wells of Reaction plate to the final concentration of 2 μM, plate was centrifuged at 100 g for 1 min followed by incubation at RT for 60 min, and the Fluorescence Intensity was measured using a Microplate Reader (ClarioStar Plus, excitation 360 nm, emission 450 nm). The % inhibition was then used to calculate the IC50 values. The IC50 values are shown in Table A1, wherein “A” corresponds to IC50<5.0 nm, “B” corresponds to 5.0 nm≤IC50<10.0 nm, “C” corresponds to 10.0 nm≤IC50<50.0 nm, “D” corresponds to 50.0 nm≤IC50<100.0 nm, and “E” corresponds to 100.0 nm≤IC50<500.0 nm, and “F” corresponds to 500.0 nm≤IC50.

[1] = test system: B16F10 mouse melanoma cells; assay: Tumor cells B16F10 cellular growth IFNγ-induced inhibition assay (CellTiter-Glo); assay type: cell-based; conditions: for IC50: B16-F10, 72 h, 3 days incubation; for inhibition at 100 µM: B16-F10, B16F10, 100 μM compound
Experimental: B16F10 mouse melanoma cells (ATCC Cat #CRL-6475) were seeded at a density of 500 cells per well in a 384-well clear bottom plate (Corning Cat #3712, Corning, N.Y.) in 40 μL total volume of DMEM+10% FBS (PanEco Cat #C420, Russia and Sigma Cat #F4135, St. Louis, Mo.). Cells were allowed to adhere overnight at 37° C., 5% CO2. On the following day, 250× solutions of compounds in DMSO (Sigma Cat #D2650) were prepared into […] plate (Diamond Well Plate, Axigen, Cat #P-384-120SQ-C-S) (final concentration of 1×) and DMSO only controls were included. Dilution Plate (Diamond Well Plate (Axigen, Cat #P-384-120SQ-C-S) was prepared by adding 49 μL of culture medium per well: half of the plate with culture medium only, half with culture medium+IFNγ (5 ng/ml). A 1 μL aliquot of 250× compounds ([…] plate) was added to 49 μL of culture medium (Dilution plate), then a 10 μL aliqut of the mixture was transferred to Reaction plate with 40 μL of cells followed by centrifugation at 240 g for 1 min. After 3 days of incubation, 10 μL of CellTiter-Glo (Promega) was added to the cells, plates were centrifuged at 240 g for 1 min, and luminescence signal was measured. For each compound, the percent growth inhibition at every compound dose level was calculated relative to the “DMSO/with IFNγ” control and used to determine the IC50.

[2] = B16F10, + IFNγ, read-out: IC50 + IFNγ
[3] = B16F10, no IFNγ, read-out: IC50 no IFNγ
[4] = + IFNγ, read-out: % Growth Inhibition at 100 μM + IFNγ
[5] = no IFNγ, read-out: % Growth Inhibition at 100 μM no IFNγ

T1 sequence (P17706 with tags, fused parts or gaps): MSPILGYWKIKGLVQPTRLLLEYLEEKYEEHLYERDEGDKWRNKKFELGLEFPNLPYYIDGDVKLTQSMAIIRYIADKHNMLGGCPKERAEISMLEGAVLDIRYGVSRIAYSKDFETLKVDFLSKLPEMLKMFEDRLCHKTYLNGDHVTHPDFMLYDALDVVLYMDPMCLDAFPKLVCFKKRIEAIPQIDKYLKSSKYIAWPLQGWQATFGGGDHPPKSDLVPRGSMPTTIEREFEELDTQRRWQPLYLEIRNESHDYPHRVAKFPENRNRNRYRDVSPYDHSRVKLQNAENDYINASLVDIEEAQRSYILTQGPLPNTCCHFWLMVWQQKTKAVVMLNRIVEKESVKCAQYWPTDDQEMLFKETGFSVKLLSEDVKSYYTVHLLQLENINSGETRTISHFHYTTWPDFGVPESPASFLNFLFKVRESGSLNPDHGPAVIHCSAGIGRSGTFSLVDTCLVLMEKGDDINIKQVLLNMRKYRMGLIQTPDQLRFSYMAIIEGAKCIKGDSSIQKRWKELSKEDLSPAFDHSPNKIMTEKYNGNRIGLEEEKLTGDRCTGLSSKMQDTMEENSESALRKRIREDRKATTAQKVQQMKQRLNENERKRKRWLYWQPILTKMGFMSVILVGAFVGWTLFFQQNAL

Row | IC50 (GST-tagged PTPN2 protein) | IC50 [1, 2] | IC50 [1, 3] | SMILES | inhibition at 100 µM [1, 4] | inhibition at 100 µM [1, 5] | inhibition at 40 µM ([1]; B16-F10, B16F10, 40 μM compound, no IFNγ, read-out: % Growth Inhibition no IFNγ @ 40 μM)
1 | < 0.005 µM | 50 to 100 µM | ≥ 100 µM | CC(C)CNC(=O)C12CC(NC(=O)Nc3cc(O)c(N4CC(=O)NS4(=O)=O)c(F)c3)(C1)C2 [Example 112, 3-[[3-fluoro-5-hydroxy-4-(1,1,4-trioxo-1,2,5-thiadiazolidin-2-yl)phenyl]carbamoylamino]-N-isobutyl-bicyclo[1.1.1]pentane-1-carboxamide] | 10 to 50% | 10 to 50% | –
2 | 0.01 to 0.05 µM | 50 to 100 µM | ≥ 100 µM | CC(C)(C)OC(=O)N1CC(CNC(=O)Nc2cc(O)c(N3CC(=O)NS3(=O)=O)c(F)c2)C2(CCCCC2)C1 (stereo not drawn) [Example 101, tert-butyl 4-[[[3-fluoro-5-hydroxy-4-(1,1,4-trioxo-1,2,5-thiadiazolidin-2-yl)phenyl]carbamoyl-amino]methyl]-2-azaspiro[4.5]decane-2-carboxylate] | 50 to 75% | 10 to 50% | –
3 | < 0.005 µM | ≥ 100 µM | ≥ 100 µM | COc1ccc(NC(=O)Nc2cc(O)c(N3CC(=O)NS3(=O)=O)c(F)c2)cc1 [Example 37, 1-[4-(1,1-dioxido-4-oxo-1,2,5-thiadiazolidin-2-yl)-3-fluoro-5-hydroxyphenyl]-3-(4-methoxyphenyl)urea] | 10 to 50% | 10 to 50% | –
4 | 0.005 to 0.01 µM | < 5 µM | ≥ 100 µM | CC(C)CCNC(=O)Nc1cc(O)c(N2CC(=O)NS2(=O)=O)c(F)c1 [Example 62, 1-[4-(1,1-dioxido-4-oxo-1,2,5-thiadiazolidin-2-yl)-3-fluoro-5-hydroxyphenyl]-3-(3-methylbutyl)urea] | 75 to 100% | 10 to 50% | –
5 | 0.1 to 0.5 µM | ≥ 100 µM | ≥ 100 µM | O=C1CN(c2c(O)cc(-c3cc(F)cc(F)c3)cc2F)S(=O)(=O)N1 [Example 4, 5-(3,3′,5′-trifluoro-5-hydroxybiphenyl-4-yl)-1,2,5-thiadiazolidin-3-one 1,1-dioxide] | 10 to 50% | 10 to 50% | –
6 | < 0.005 µM | 10 to 50 µM | ≥ 100 µM | O=C1CN(c2c(O)cc(NC(=O)Nc3cccc(F)c3)cc2F)S(=O)(=O)N1 [Example 54, 1-[4-(1,1-dioxido-4-oxo-1,2,5-thiadiazolidin-2-yl)-3-fluoro-5-hydroxyphenyl]-3-(3-fluorophenyl)urea] | 50 to 75% | 10 to 50% | –
7 | < 0.005 µM | < 5 µM | ≥ 100 µM | O=C1CN(c2c(O)cc(NC(=O)NC3CCCCC3)cc2F)S(=O)(=O)N1 [Example 56, 1-cyclohexyl-3-[4-(1,1-dioxido-4-oxo-1,2,5-thiadiazolidin-2-yl)-3-fluoro-5-hydroxyphenyl]urea] | 75 to 100% | 10 to 50% | –
8 | 0.01 to 0.05 µM | 5 to 10 µM | ≥ 100 µM | COCCCNC(=O)Nc1cc(O)c(N2CC(=O)NS2(=O)=O)c(F)c1 [Example 58, 1-[4-(1,1-dioxido-4-oxo-1,2,5-thiadiazolidin-2-yl)-3-fluoro-5-hydroxyphenyl]-3-(3-methoxypropyl)urea] | 75 to 100% | 10 to 50% | –
9 | 0.1 to 0.5 µM | ≥ 100 µM | ≥ 100 µM | Cc1ccc(-c2cc(C(F)(F)F)nn2-c2ccc(S(=O)(=O)Nc3cc(O)c(N4CC(=O)NS4(=O)=O)c(F)c3)cc2)cc1 [Example 19, N-[4-(1,1-dioxido-4-oxo-1,2,5-thiadiazolidin-2-yl)-3-fluoro-5-hydroxyphenyl]-4-[5-(4-methylphenyl)-3-(trifluoromethyl)-1H-pyrazol-1-yl]benzenesulfonamide] | 10 to 50% | 10 to 50% | –
10 | < 0.005 µM | ≥ 100 µM | ≥ 100 µM | O=C1CN(c2c(O)cc(NC(=O)NC3CCN(S(=O)(=O)c4ccccc4Cl)CC3)cc2F)S(=O)(=O)N1 [Example 51, 1-{1-[(2-chlorophenyl)sulfonyl]piperidin-4-yl}-3-[4-(1,1-dioxido-4-oxo-1,2,5-thiadiazolidin-2-yl)-3-fluoro-5-hydroxyphenyl]urea] | 10 to 50% | 10 to 50% | –
11 | 0.1 to 0.5 µM | 10 to 50 µM | ≥ 100 µM | O=C1CN(c2c(O)cc(NS(=O)(=O)c3ccccc3F)cc2F)S(=O)(=O)N1 [Example 21, N-[4-(1,1-dioxido-4-oxo-1,2,5-thiadiazolidin-2-yl)-3-fluoro-5-hydroxyphenyl]-2-fluorobenzenesulfonamide] | 50 to 75% | 10 to 50% | –
12 | 0.05 to 0.1 µM | 10 to 50 µM | ≥ 100 µM | O=C1CN(c2c(O)cc(NS(=O)(=O)c3ccc(F)cc3)cc2F)S(=O)(=O)N1 [Example 20, N-[4-(1,1-dioxido-4-oxo-1,2,5-thiadiazolidin-2-yl)-3-fluoro-5-hydroxyphenyl]-4-fluorobenzenesulfonamide] | 50 to 75% | 10 to 50% | –
13 | 0.1 to 0.5 µM | ≥ 100 µM | ≥ 100 µM | COc1ccc(-c2cc(O)c(N3CC(=O)NS3(=O)=O)c(F)c2)cc1 [Example 3, 5-(3-fluoro-5-hydroxy-4′-methoxybiphenyl-4-yl)-1,2,5-thiadiazolidin-3-one 1,1-dioxide] | 10 to 50% | 10 to 50% | –
14 | 0.1 to 0.5 µM | ≥ 100 µM | ≥ 100 µM | O=C1CN(c2c(O)cc(-c3cccc(NC4CCN(S(=O)(=O)Cc5ccccc5)CC4)c3)cc2F)S(=O)(=O)N1 [Example 12, 5-(3′-{[1-(benzylsulfonyl)piperidin-4-yl]amino}-3-fluoro-5-hydroxybiphenyl-4-yl)-1,2,5-thiadiazolidin-3-one 1,1-dioxide] | 10 to 50% | 10 to 50% | –
15 | < 0.005 µM | 50 to 100 µM | ≥ 100 µM | CC(C)(C)OC(=O)N1CCCC(NC(=O)Nc2cc(O)c(N3CC(=O)NS3(=O)=O)c(F)c2)C1 (stereo not drawn) [Example 106, tert-butyl 3-[[3-fluoro-5-hydroxy-4-(1,1,4-trioxo-1,2,5-thiadiazolidin-2-yl)phenyl]carbamoylamino]piperidine-1-carboxylate] | 50 to 75% | 10 to 50% | –
16 | 0.005 to 0.01 µM | ≥ 100 µM | ≥ 100 µM | O=C1CN(c2c(O)cc(NC(=O)NC3CCN(S(=O)(=O)Cc4ccccc4Cl)CC3)cc2F)S(=O)(=O)N1 [Example 45, 1-{1-[(2-chlorobenzyl)sulfonyl]piperidin-4-yl}-3-[4-(1,1-dioxido-4-oxo-1,2,5-thiadiazolidin-2-yl)-3-fluoro-5-hydroxyphenyl]urea] | 10 to 50% | 10 to 50% | –
17 | 0.01 to 0.05 µM | 10 to 50 µM | 10 to 50 µM | O=C1CN(c2c(O)cc(NS(=O)(=O)c3ccccc3)cc2F)S(=O)(=O)N1 [Example 17, N-[4-(1,1-dioxido-4-oxo-1,2,5-thiadiazolidin-2-yl)-3-fluoro-5-hydroxyphenyl]benzenesulfonamide] | – | – | 10 to 50%

Source: patent publication US20240262801A1, “COMPOUNDS HAVING 5-(2-FLUORO-6-HYDROXYPHENYL)-1,2,5-THIADIAZOLIDIN-3-ONE 1,1-DIOXIDE AS INHIBITORS OF PROTEIN KINASE PHOSPHATASE ENZYMES” (Ness Therapeutics, Inc., priority 2021, published 2024)
